For test [1], the target named is Pim-2 (Homo sapiens (Human), UniProt Q9P1W9). The test can be described thus: Pim-Mn enzyme assay (HTRF, 384-well), Pim-2. It counts as biochemical. The following applies: read-out: Pim-2-Mn IC50 IP. (TR-FRET usually uses a lanthanide donor and a delayed reading to cut background.)
The target of test [2] is Pim-1 (Homo sapiens (Human), UniProt P11309). Description: Pim-Mn enzyme assay (HTRF, 384-well), Pim-1. It counts as biochemical. The following applies: read-out: Pim-1-Mn IC50 IP.
[3] abbreviates: Pim-2 enzyme 0.5 pM, ATP 1.5 μM, BAD (S112) 0.5 μM, HTRF, 22-point curve.
Where [4] appears, read: Pim-1 enzyme 5 pM, ATP 1.5 μM, BAD (S112) 0.5 μM, HTRF, 22-point curve.

As usually defined, the IC50 is the midpoint of a concentration-inhibition curve.

Like-named read-outs stand apart in the source and are kept apart here.

Pim-2, sequence (Q9P1W9 whole entry): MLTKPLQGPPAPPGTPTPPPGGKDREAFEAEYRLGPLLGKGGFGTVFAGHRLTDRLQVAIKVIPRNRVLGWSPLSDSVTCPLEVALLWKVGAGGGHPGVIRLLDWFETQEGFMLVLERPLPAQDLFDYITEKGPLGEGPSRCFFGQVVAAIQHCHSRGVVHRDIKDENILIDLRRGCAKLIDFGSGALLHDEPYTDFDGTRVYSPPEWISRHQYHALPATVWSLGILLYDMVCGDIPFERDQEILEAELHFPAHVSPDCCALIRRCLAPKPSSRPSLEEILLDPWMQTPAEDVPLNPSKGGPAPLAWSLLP
Pim-1, sequence (P11309 whole entry): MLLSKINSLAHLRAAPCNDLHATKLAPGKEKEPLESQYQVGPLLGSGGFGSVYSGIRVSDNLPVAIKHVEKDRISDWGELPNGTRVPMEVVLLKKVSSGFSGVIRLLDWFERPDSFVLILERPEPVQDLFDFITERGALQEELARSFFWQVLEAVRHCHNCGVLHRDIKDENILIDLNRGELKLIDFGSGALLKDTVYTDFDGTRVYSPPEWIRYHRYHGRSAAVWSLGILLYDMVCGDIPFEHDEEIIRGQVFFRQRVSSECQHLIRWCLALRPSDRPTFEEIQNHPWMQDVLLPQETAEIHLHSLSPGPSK

For the compound `Cc1nc2cccc(-c3cc4c([nH]3)CCNC4=O)c2nc1N[C@H]1CC[C@H](O)CC1` [Example 206, 2-(3-((trans-4-hydroxycyclohexyl)amino)-2-methylquinoxalin-5-yl)-6,7-dihydro-1H-pyrrolo[3,2-c]pyridin-4(5H)-one], the IC50 in test [1] (setting [3]) turned out to be 4 nM; in test [2] (setting [4]), 2.7 nM.
Regarding `CC(C)(C)Nc1nc2c(-c3cc4c([nH]3)CCNC4=O)cccc2nc1C(F)(F)F` [Example 224, 2-(3-(tert-butylamino)-2-(trifluoromethyl)quinoxalin-5-yl)-6,7-dihydro-1H-pyrrolo[3,2-c]pyridin-4(5H)-one], the IC50 in test [1] (setting [3]) worked out at 2.8 nM; in test [2] (setting [4]), 4.2 nM.
For the compound `Cc1nc2cccc(-c3cc4c([nH]3)CCNC4=O)c2nc1NS(C)(=O)=O` [Example 240, N-(3-methyl-8-(4-oxo-4,5,6,7-tetrahydro-1H-pyrrolo[3,2-c]pyridin-2-yl)quinoxalin-2-yl)methanesulfonamide 2,2,2-trifluoroacetate], the half-maximal inhibitory concentration (IC50) in test [1] stood at 9.6 nM; in test [2], 87.5 nM.
On to `CC(=O)N1CCC[C@@H](Nc2nc3c(-c4cc5c([nH]4)CCNC5=O)cccc3nc2C)C1` [Example 241, 2-(3-(((3R)-1-acetyl-3-piperidinyl)amino)-2-methyl-5-quinoxalinyl)-1,5,6,7-tetrahydro-4H-pyrrolo[3,2-c]pyridin-4-one], for which the concentration for half-maximal inhibition (IC50) in test [1] (setting [3]) was 68.4 nM; in test [2] (setting [4]), 43.7 nM.
For the compound `CC(=O)N1CCC[C@H](Nc2nc3c(-c4cc5c([nH]4)CCNC5=O)cccc3nc2C)C1` [Example 242, 2-(3-(((3S)-1-acetyl-3-piperidinyl)amino)-2-methyl-5-quinoxalinyl)-1,5,6,7-tetrahydro-4H-pyrrolo[3,2-c]pyridin-4-one], the IC50 in test [1] (setting [3]) was determined as 137 nM; in test [2] (setting [4]) it was 129 nM.
As for `Cc1nc2cccc(-c3cc4c([nH]3)CCNC4=O)c2nc1NC1CN(C)C1` [Example 243, 2-(2-methyl-3-((1-methyl-3-azetidinyl)amino)-5-quinoxalinyl)-1,5,6,7-tetrahydro-4H-pyrrolo[3,2-c]pyridin-4-one], the IC50 in test [1] (setting [3]) is 1050 nM; in test [2] (setting [4]), 853 nM.
Take `Cc1nc2cccc(-c3cc4c([nH]3)CCNC4=O)c2nc1NC(C)(C)C(F)(F)F` [Example 254, 2-(2-methyl-3-((1,1,1-trifluoro-2-methylpropan-2-yl)amino)quinoxalin-5-yl)-6,7-dihydro-1H-pyrrolo[3,2-c]pyridin-4(5H)-one]: the figures for the IC50 in test [1] (setting [3]) and in test [2] (setting [4]) were 2.24 nM and 2.67 nM, respectively.
The like results for `Cc1nc2cccc(-c3cc4c([nH]3)CCNC4=O)c2nc1N[C@@H](C)C(F)(F)F` [Example 255, (S)-2-(2-methyl-3-((1,1,1-trifluoropropan-2-yl)amino)quinoxalin-5-yl)-6,7-dihydro-1H-pyrrolo[3,2-c]pyridin-4(5H)-one] were, in that order, 27.2 nM and 28.3 nM.
For the compound `Cc1nc2cccc(-c3cc4c([nH]3)CCNC4=O)c2nc1NC1(C(F)(F)F)CC1` [Example 258, 2-(2-methyl-3-((1-(trifluoromethyl)cyclopropyl)amino)quinoxalin-5-yl)-6,7-dihydro-1H-pyrrolo[3,2-c]pyridin-4(5H)-one], the IC50 in test [1] (setting [3]) is 0.338 nM; in test [2] (setting [4]), 0.694 nM.
For `Cc1nc2cccc(-c3cc4c(=O)[nH]cnc4[nH]3)c2nc1N` [Example 262, 6-(3-amino-2-methylquinoxalin-5-yl)-3H-pyrrolo[2,3-d]pyrimidin-4(7H)-one], in that order: 21 nM and 18.9 nM.
Take `Cc1nc2cccc(-c3cc4c(=O)[nH]cnc4[nH]3)c2nc1F` [Example 264, 6-(3-fluoro-2-methylquinoxalin-5-yl)-3H-pyrrolo[2,3-d]pyrimidin-4(7H)-one]: the IC50 in test [1] (setting [3]) is 1690 nM; in test [2] (setting [4]), 1120 nM.
For `CSc1nc2c(-c3cc4c([nH]3)CCNC4=O)cccc2c(=O)n1C` [Example 265, 3-methyl-2-(methylthio)-8-(4-oxo-4,5,6,7-tetrahydro-1H-pyrrolo[3,2-c]pyridin-2-yl)quinazolin-4(3H)-one], in that order: 11.9 nM and 25.2 nM.
The like results for `Cn1c(Nc2ccccc2)nc2c(-c3cc4c([nH]3)CCNC4=O)cccc2c1=O` [Example 266, 3-methyl-8-(4-oxo-4,5,6,7-tetrahydro-1H-pyrrolo[3,2-c]pyridin-2-yl)-2-(phenylamino)quinazolin-4(3H)-one] were, in that order, 2 nM and 3.1 nM.
For `Cc1nc2cccc(-c3cc4c([nH]3)CCNC4=O)c2nc1OCCC(C)(C)N` [Example 269, 2-(3-(3-amino-3-methylbutoxy)-2-methyl-5-quinoxalinyl)-1,5,6,7-tetrahydro-4H-pyrrolo[3,2-c]pyridin-4-one], in that order: 65.3 nM and 44.5 nM.
On to `Cc1nc2cccc(-c3cc4c([nH]3)CCNC4=O)c2nc1NC(C)(C)CS(C)(=O)=O` [Example 274, 2-(3-((1,1-dimethyl-2-(methylsulfonyl)ethyl)amino)-2-methyl-5-quinoxalinyl)-1,5,6,7-tetrahydro-4H-pyrrolo[3,2-c]pyridin-4-one], for which the IC50 in test [1] (setting [3]) was determined as 39.5 nM; in test [2] (setting [4]), 44.4 nM.
For the compound `Cc1nc2cccc(-c3cc4c([nH]3)C[C@H](C)NC4=O)c2nc1NC(C)(C)C` [Example 288, (6S)-2-(3-(tert-butylamino)-2-methyl-5-quinoxalinyl)-6-methyl-1,5,6,7-tetrahydro-4H-pyrrolo[3,2-c]pyridin-4-one], the IC50 in test [1] (setting [3]) is 3.96 nM; in test [2] (setting [4]) it was 5.85 nM.
The like results for `Cc1nc2cccc(-c3cc4c([nH]3)C[C@@H](C)NC4=O)c2nc1NC(C)(C)C` [Example 289, (6R)-2-(3-(tert-butylamino)-2-methyl-5-quinoxalinyl)-6-methyl-1,5,6,7-tetrahydro-4H-pyrrolo[3,2-c]pyridin-4-one] were, in that order, 3.37 nM and 2.69 nM.
The like results for `Cc1nc2cccc(-c3cc4c([nH]3)CCNC4=O)c2nc1N[C@H]1C[C@H](NC(=O)OC(C)(C)C)C1` [Example 436, tert-butyl ((1r,3s)-3-((3-methyl-8-(4-oxo-4,5,6,7-tetrahydro-1H-pyrrolo[3,2-c]pyridin-2-yl)quinoxalin-2-yl)amino)cyclobutyl)carbamate] were, in that order, 8.2 nM and 4.1 nM.
The like results for `CC(C)(C)Nc1nc2c(-c3cc4c([nH]3)CCNC4=O)cccc2nc1-c1ccccc1` [Example 438, 2-(3-(tert-Butylamino)-2-phenylquinoxalin-5-yl)-6,7-dihydro-1H-pyrrolo[3,2-c]pyridin-4(5H)-one] were, in that order, 12 nM and 3.1 nM.
`Cc1nc2cccc(-c3cc4c([nH]3)CCNC4=O)c2nc1N[C@H]1C[C@@H](O)C1` [Example 439, 2-(3-((cis-3-Hydroxycyclobutyl)amino)-2-methylquinoxalin-5-yl)-6,7-dihydro-1H-pyrrolo[3,2-c]pyridin-4(5H)-one]: the IC50 is 1.4 nM in test [1] (setting [3]) and 2.5 nM in test [2] (setting [4]).
For `Cc1nc2cccc(-c3[nH]c4c(c3Cl)C(=O)N[C@@H]4C)c2nc1NC1(C)CC1` [Example 454, (R)-3-chloro-6-methyl-2-(2-methyl-3-((1-methylcyclopropyl)amino)quinoxalin-5-yl)-5,6-dihydropyrrolo[3,4-b]pyrrol-4(1H)-one], in that order: 0.599 nM and 0.255 nM.
For `Cc1nc2cccc(-c3cc4c([nH]3)CCNC4=O)c2nc1N[C@H]1C[C@@H](N(CCF)CCF)C1` [Example 476, 2-(3-(((1 s,3s)-3-(bis(2-fluoroethyl)amino)cyclobutyl)amino)-2-methylquinoxalin-5-yl)-6,7-dihydro-1H-pyrrolo[3,2-c]pyridin-4(5H)-one], in that order: 12 nM and 2 nM.
For `Cc1nc2cccc(-c3cc4c([nH]3)CCNC4=O)c2nc1N[C@H]1C[C@@H](NCCF)C1` [Example 477, 2-(3-(((1s,3s)-3-((2-fluoroethyl)amino)cyclobutyl)amino)-2-methylquinoxalin-5-yl)-6,7-dihydro-1H-pyrrolo[3,2-c]pyridin-4(5H)-one], the IC50 in test [1] (setting [3]) and in test [2] (setting [4]) was 1 nM each time.
For the compound `C[C@H]1NC(=O)c2cc(-c3cccc4c(=O)n(-c5cccnc5)c(NC(C)(C)C)nc34)[nH]c21` [Example 482, 2-(tert-butylamino)-8-((6R)-6-methyl-4-oxo-1,4,5,6-tetrahydropyrrolo[3,4-b]pyrrol-2-yl)-3-(3-pyridinyl)-4(3H)-quinazolinone], the IC50 in test [1] (setting [3]) stood at 2.77 nM; in test [2] (setting [4]), 0.718 nM.
The like results for `Cc1nc2cccc(-c3cc4c([nH]3)[C@@H](C)NC4=O)c2nc1N[C@H]1CCC[C@@H](N)C1` [Example 483, (6R)-2-(3-(((1S,3R)-3-aminocyclohexyl)amino)-2-methyl-5-quinoxalinyl)-6-methyl-5,6-dihydropyrrolo[3,4-b]pyrrol-4(1H)-one] were, in that order, 0.0358 nM and 0.0598 nM.
As to `C[C@H]1NC(=O)c2cc(-c3cccc4c(N)nc(NC(C)(C)C)nc34)[nH]c21` [Example 484, (6R)-2-(4-amino-2-(tert-butylamino)-8-quinazolinyl)-6-methyl-5,6-dihydropyrrolo[3,4-b]pyrrol-4(1H)-one], the IC50 is 7.66 nM in test [1] (setting [3]) and 3.98 nM in test [2] (setting [4]).
For the compound `CC(=O)N[C@@H]1CCC[C@H](Nc2nc3c(-c4cc5c([nH]4)[C@@H](C)NC5=O)cccc3nc2C)C1` [Example 486, N-((1R,3S)-3-((3-methyl-8-((6R)-6-methyl-4-oxo-1,4,5,6-tetrahydropyrrolo[3,4-b]pyrrol-2-yl)-2-quinoxalinyl)amino)cyclohexyl)acetamide], the IC50 in test [1] (setting [3]) was found to be 2.38 nM; in test [2] (setting [4]) it was 1.73 nM.

(Values after US9394297B2, “Amides as pim inhibitors” (AMGEN INC., priority 2012, dated 2016).)
